Assays:
[1] = Example 11 emulsion stability: time point when crystallisation was observed (polarised light microscopy); assay type: physicochemical; settings: for emulsion stability compared to sodium dodecyl sulfate (SDS): as aqueous phase surfactant of the cyclosporin emulsion
Protocol: Emulsions were prepared by mixing an oil phase and an aqueous phase, as described in Example 1. The oil phase was consistent for all emulsions of this example. The emulsion aqueous phase mixed was one of three aqueous mixtures. The three aqueous phases differed in the amount of surfactant, 0.7%, 1.3% and 2.5%, and water.
The emulsion was prepared by mixing the oil phase and aqueous phase in a oil:aqueous phase ratio of 1:5. The experiments were performed in triplicate, N=3. In order to replicate current manufacturing conditions as much as possible the following procedure was carried out: • Identical size beakers were used to ensure minimal variation between experiments • Identical submersible magnetic stirrers were placed in each beaker to keep the emulsions under constant magnetic stirring, and the same rpm stir rate used for each • Hot plates were used to maintain a constant emulsion temperature of 65° C. • Emulsions were kept covered with aluminium foil during the process
Sampling of the emulsion was carried out at various time points using disposable pipettes to avoid cross contamination.
(§1) Samples were withdrawn from each emulsion at half hour time intervals starting at time zero (t0) using a disposable pipette. Drops of emulsion were placed on a glass slide, pre heated on a hot plate. The sample was covered with a cover slip and a small amount of pressure applied to form a thin film of emulsion. The samples were allowed to solidify to room temperature before being viewed at ×50 and ×100 objective lens under polarised light to check for the presence of crystals. Results were recorded as optical photomicrographs with three images taken of each emulsion at each time point. Images documenting crystal growth and size with respect to time within the sample emulsion as well as background oil droplet size were collected.

[2] = Example 11 emulsion droplet size by photomicrographs; assay type: physicochemical
Source text: as §1
Photomicrographs of the emulsions enabled the investigation of the droplet size as well as crystal formation. Smaller, more uniform droplet size was preferred.

Structure (SMILES)	emulsion stability compared to sodium dodecyl sulfate (SDS) [1]	emulsion droplet characteristics (smaller, more uniform droplet size preferred) [2]	emulsion stability among tested surfactants ([1]; each concentration (0.7%, 1.3%, 2.5% in aqueous phase))
CCCCCCCCOS(=O)(=O)[O-].[Na+] [Sodium n-Octyl Sulfate]	comparable to that of sodium dodecyl sulfate	preferred droplet characteristics were observed	–
CCCCCCCCCCCCCCCCCCOS(=O)(=O)[O-].[Na+] [Sodium n-Octadecyl Sulfate]	comparable to that of sodium dodecyl sulfate	preferred droplet characteristics were observed	best stability for each concentration

Source: patent US10993987B2 (Sublimity Therapeutics Limited, priority 2014, dated 2021)
